Reference: the NIST ThermoML archive (doi:10.1016/j.fluid.2018.10.006)

Conditions: Fluid (supercritical or subcritical phases), Coaxial cylinder method

CCCCCC [hexane]
thermal conductivity [W/m/K]
Conditions | 509.85 K | 510.36 K
245 kPa | – | 0.0379
1000 kPa | – | 0.03854
2245 kPa | – | 0.04183
2715 kPa | – | 0.04665
2965 kPa | 0.05466 | –
2970 kPa | 0.05502 | –
2975 kPa | 0.05557 | –
2980 kPa | 0.05557 | –
2985 kPa | 0.05595 | –
2990 kPa | 0.05595 | –
2995 kPa | 0.05651 | –
3000 kPa | 0.0569 | –
3005 kPa | 0.05749 | –
3010 kPa | 0.05788 | –
3015 kPa | 0.05829 | –
3020 kPa | 0.05869 | –
3025 kPa | 0.05975 | –
3030 kPa | 0.05975 | –
3035 kPa | 0.05975 | –
3040 kPa | 0.06085 | –
3045 kPa | 0.0613 | –
3050 kPa | 0.0618 | –
3055 kPa | 0.06256 | –
3060 kPa | 0.06305 | –
3065 kPa | 0.06429 | –
3070 kPa | 0.06507 | –
3080 kPa | 0.06696 | –
3085 kPa | 0.06809 | –
3090 kPa | 0.06955 | –
3095 kPa | 0.07139 | –
3100 kPa | 0.07333 | –
3105 kPa | 0.07573 | –
3110 kPa | 0.07753 | 0.06796
3112 kPa | – | 0.06824
3114 kPa | – | 0.06881
3115 kPa | 0.08101 | –
3116 kPa | – | 0.06939
3118 kPa | – | 0.07027
3120 kPa | 0.08569 | 0.07087
3122 kPa | – | 0.07148
3124 kPa | – | 0.07242
3125 kPa | 0.08932 | –
3126 kPa | – | 0.07338
3128 kPa | – | 0.07403
3130 kPa | 0.09098 | 0.0747
3132 kPa | – | 0.07538
3133 kPa | – | 0.07607
3134 kPa | – | 0.07624
3135 kPa | 0.09203 | –
3137 kPa | – | 0.0784
3138 kPa | – | 0.07915
3139 kPa | – | 0.07991
3140 kPa | 0.08826 | 0.08056
3141 kPa | – | 0.08119
3142 kPa | – | 0.08199
3143 kPa | – | 0.08268
3144 kPa | – | 0.0833
3145 kPa | 0.08512 | 0.08393
3146 kPa | – | 0.08457
3147 kPa | – | 0.08501
3148 kPa | – | 0.08552
3150 kPa | 0.0829 | 0.08631
3151 kPa | – | 0.08656
3152 kPa | – | 0.08673
3153 kPa | – | 0.08695
3154 kPa | – | 0.08709
3155 kPa | 0.08149 | 0.087
3156 kPa | – | 0.08691
3157 kPa | – | 0.08682
3158 kPa | – | 0.08656
3159 kPa | – | 0.08634
3160 kPa | 0.07984 | 0.08604
3161 kPa | – | 0.08582
3162 kPa | – | 0.08548
3163 kPa | – | 0.08518
3164 kPa | – | 0.08476
3166 kPa | – | 0.08393
3168 kPa | – | 0.0832
3170 kPa | 0.07755 | 0.08248
3172 kPa | – | 0.08173
3174 kPa | – | 0.08088
3176 kPa | – | 0.08019
3178 kPa | – | 0.07941
3180 kPa | 0.07646 | 0.07883
3182 kPa | – | 0.07826
3184 kPa | – | 0.07767
3186 kPa | – | 0.07716
3188 kPa | – | 0.07654
3190 kPa | 0.07505 | 0.076
3192 kPa | – | 0.07563
3194 kPa | – | 0.07525
3196 kPa | – | 0.07489
3198 kPa | – | 0.07452
3200 kPa | 0.07436 | 0.07416
3202 kPa | – | 0.0738
3204 kPa | – | 0.07362
3206 kPa | – | 0.07337
3208 kPa | – | 0.07309
3210 kPa | 0.07368 | 0.07292
3212 kPa | – | 0.07274
3214 kPa | – | 0.0724
3216 kPa | – | 0.0724
3218 kPa | – | 0.07206
3220 kPa | 0.07319 | 0.07206
3222 kPa | – | 0.07189
3225 kPa | – | 0.07175
3228 kPa | – | 0.07155
3230 kPa | 0.07264 | –
3240 kPa | 0.07251 | –
3250 kPa | 0.07211 | –
3260 kPa | 0.07181 | –
3270 kPa | 0.07177 | –
3280 kPa | 0.07145 | –
3290 kPa | 0.07134 | –
3300 kPa | 0.07091 | –
3310 kPa | 0.07096 | –
3320 kPa | 0.07054 | –
3330 kPa | 0.07035 | –
3340 kPa | 0.06992 | –
3390 kPa | 0.06989 | –
3400 kPa | 0.06989 | –
3450 kPa | 0.06947 | –
3500 kPa | 0.06961 | –
3600 kPa | 0.06975 | –
3800 kPa | 0.07031 | –
4000 kPa | 0.07061 | –
4200 kPa | 0.07105 | –
4400 kPa | 0.07134 | –
4600 kPa | 0.07179 | –
4800 kPa | 0.07215 | –
5000 kPa | 0.07254 | –
5200 kPa | 0.07285 | –
5400 kPa | 0.07315 | –
5600 kPa | 0.07355 | –
5800 kPa | 0.07393 | –
6000 kPa | 0.07421 | –
6200 kPa | 0.07453 | –
6400 kPa | 0.07484 | –
6600 kPa | 0.07514 | –
6800 kPa | 0.07543 | –
7000 kPa | 0.0757 | –
7200 kPa | 0.07596 | –
7400 kPa | 0.07619 | –
7600 kPa | 0.07646 | –
7800 kPa | 0.07673 | –
8000 kPa | 0.07679 | –
8200 kPa | 0.07703 | –
8500 kPa | 0.07741 | –
9000 kPa | 0.07802 | –
9500 kPa | 0.07856 | –
10000 kPa | 0.0791 | –
